Measured values: US20200290034A1, “COMPOSITION AND METHOD FOR REGENERATING CATION EXCHANGE RESINS” (Tygrus, LLC, priority 2019, published 2020)

Key:
[1] = Shelf-stability of stored samples; assay type: physicochemical; conditions: closed containers at standard temperature and 50% relative humidity
Source text: The material produced in Example I is separated into individual samples. Some are stored in closed containers at standard temperature and 50% relative humidity to determine shelf-stability. Other samples are subjected to analytical procedures to determine composition. The test samples are subjected to FFTIR spectra analysis and titrated with hydrogen coulometry. The sample material has a molarity ranging from […] strength. The material has a gravimetric range greater than 1.15; with ranges greater than 1.9 in certain instances. The composition is stable and has a 1.87 to 1.78 molar material that contains 8 to 9% of the total moles of acid protons that are not charged balanced.

[2] = Excess hydrogen ion concentration and pH after admixing with water; conditions: 5 ml material admixed in 5 ml deionized and distilled water, standard temperature and pressure

In the case of “hydrogen (1+), triaqua-μ3-oxotri sulfate (1:1) [Example I]”, the shelf-stability [1] is reported as “stable”, the “excess hydrogen ion concentration” value [2] is reported as “greater than 15 % by volume” and the pH [2] is reported as 1.
